Test results published in patent US20120095024A1, “TOLUIDINE SULFONAMIDES AND THEIR USE” (Elara Pharmaceuticals GmbH, priority 2008, published 2012).

What was measured:
MCF7 cells = test: Cell proliferation assay (ATPlite), MCF-7; format: cell-based, human; conditions: Homo sapiens, inhibition of cell proliferation, 72 h
Outline: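 Cells seeded (MCF-7 2000/well, HG-1 1000/well in RPMI with 2 ng/ml IL-6), then after 24 h exposed to compound at 0.5% DMSO final for 72 h. Proliferation read as ATP luminescence (ATPlite); EC50 calculated from the dose-response.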

tubulin = target: T1, tubulin (Sus scrofa, UniProt P02550+P02554); test: Inhibition of in vitro tubulin polymerization; format: biochemical, porcine; conditions: final absorbance 340 nm at 90 min
T1 construct: prepared in-house from porcine brain using a standard procedure involving cycles of polymerization/de-polymerization; from tissue; host or cells: porcine brain
Method: To assess the degree of inhibition of in vitro tubulin polymerization, a tubulin solution (prepared in-house from porcine brain using a standard procedure involving cycles of polymerization/de-polymerization, see Castoldi & Popov (2003) Protein Expr. Purif. 32(1): 83-88) was incubated with varying concentrations of compounds under polymerizing conditions and kinetic experiments performed to determine the amount of polymerization (as measured by changes in OD at 340 nm) taking place over a 90 min period.
Compound solutions were diluted in double-distilled water to yield final 10× solutions containing 5% DMSO. 5 μl solutions were then added to the wells on a 384-well clear-bottom plate (Corning #3711, Corning Inc.) in preparation for the addition of tubulin. The tubulin solution (19.6 mg/ml, in 80 mM K-PIPES [pH 6.8], 1 mM MgCl2, 1 mM EGTA) was re-suspended to a final concentration of 4 mg/ml with ice cold G-PEM buffer (80 mM PIPES [pH 6.8], 2 mM MgCl2, 0.5 mM EGTA, 10% glycerol, 1 mM GTP) and maintained on ice for at least 1 min. 50 μl was then added to the pre-dispensed compound solutions, the plate orbital shaken on a medium setting for 5 s, and the first measurement begun immediately.
Experiments were carried out on a Safire^2™ monochromator (Tecan) preset to a stable temperature of 37° C.; the degree of polymerization was determined by measuring the absorbance of the solutions at 340 nm every minute over the 90 min cycle. Reported inhibition values were based on the final absorbance at 90 min and calculated with reference to a vehicle control (0.5% DMSO) using the minimum and maximum signals obtained for this sample.

[1] = system: HIF mediated transcription; test: Inhibition of activation of HIF mediated transcription under hypoxic conditions (CellSensor HRE-bla HCT-116); format: cell-based; conditions: Homo sapiens; HRE-bla HCT-116 cells, deferoxamine-induced hypoxia, 24 h
Method: Inhibition of an activated HIF signaling response under chemically-induced hypoxic conditions due to compound treatment was determined using the CellSensor® HRE-bla HCT-116 stably transfected reporter cell line from Invitrogen according to the manufacturer's instructions. HIF is a transcriptional factor composed of the constitutively expressed HIF1β subunit and one of three HIFα subunits (HIF1α, HIF2α, HIF3α). This assay is responsive towards HIFa activity in general. In one example, HIF-1, when stabilized by hypoxic conditions, upregulates several genes to promote cell survival in low-oxygen conditions. These include glycolysis enzymes, which allow ATP synthesis in an oxygen-independent manner, and vascular endothelial growth factor (VEGF), which promotes angiogenesis. HIF-1 acts by binding to HIF-responsive elements (HREs) in promoters that generally contain the sequence NCGTG.
Cells were maintained as described previously and seeded into 384-well, clear-bottom plates (Corning 3712) at 15000 cells/well in 32 μl assay medium (Opti-MEM [Invitrogen], 0.5% FBS, 100 U/ml penicillin, 100 μg/ml streptomycin, 0.1 mM non-essential amino acids [NEAA], 1 mM sodium pyruvate, 5 mM HEPES [pH 7.3]). Following a 2 h incubation period, compounds (4 μl) were subsequently added to the cells at 10× concentrations in 5% DMSO and incubated under normal conditions for 30 min. To induce hypoxic conditions, 4 μl of a 2 mM deferoxamine (DFO) solution was added to the cells followed by 24 h incubation under standard assay conditions (as described). Control wells included wells containing only medium (no cells) and wells treated with 0.5% DMSO instead of compound.
Prior to the readout, the Substrate Loading Solution was prepared as described in the manufacturer's protocol and 10 μl added to each well. Following a further 2 h incubation period at room temperature and in the dark, fluorescence was measured at two wavelengths (blue channel: ex. 409 nm, em. 460 nm; green channel: ex. 409 nm, em. 530 nm) on a PerkinElmer Envision HTS. For the analysis, the average signal of the cell-free wells at 460 nm and 530 nm was first subtracted from the blue and green channel data, respectively. The blue/green emission ratios were then calculated for each well, dividing the background-corrected blue emission values by the background-corrected green emission values. IC50 values were determined from these ratios using GraphPad Prism (Prism 5, GraphPad software, Inc.).

HG1 cells = test: Cell proliferation assay (ATPlite), HG-1; format: cell-based; conditions: inhibition of cell proliferation, 72 h
Method: MCF-7 human breast adenocarcinoma cells and HL-60 acute promyelocytic leukaemia cells were obtained from ATCC (LGC Promochem). HG-1 multiple myeloma cells were obtained from Dr. D. Hose (DKFZ Heidelberg). The CellSensor® HRE-bla HCT116 cell line (colorectal carcinoma) was obtained from Invitrogen.
Cells were grown under humidified 95% air, 5% CO2 at 37° C. in Dulbecco's modified Eagle's medium (DMEM: MCF-7) or RPMI 1640 medium (RPMI: HL-60, HG-1) supplemented with 10% fetal bovine serum (FBS), 100 U/ml penicillin and 100 μg/ml streptomycin, 2 mM L-glutamine, and 2 ng/ml IL-6 (for the HG-1 cell line only). The HCT116 cell line was grown under the same atmospheric conditions in McCoy's 5A medium supplemented with 10% FBS and penicillin/streptomycin as above, in addition to blasticidin as a selection marker at a final concentration of 5 μg/ml.
Cell proliferation experiments were carried out in 96-well tissue culture plates with seeding of 2000 cells/well (MCF-7) or 1000 cells/well (HL-60, HG-1) in 100 μl of the relevant medium. Cells were subsequently incubated under the conditions mentioned for 24 h prior to addition of compounds.
For the determination of compound EC50 values, 10 μl compounds at 11× concentrations in 5.5% DMSO were added to the wells at various concentrations yielding a final constant percentage of 0.5% DMSO at the desired 1× compound concentration. As a positive control, cells were treated with 5.5% DMSO. The cells were then incubated for a further 72 h prior to the measurement.
To determine the degree of inhibition of cell proliferation, cells were treated with ATPlite solution according to the manufacturer's instructions (PerkinElmer, ATPlite 1-step Luminescence ATP Detection Assay System) and luciferase readout measured on an Envision HTS multilabel plate reader (PerkinElmer) in luminescence mode according to established protocols. Raw data were imported into an ActivityBase database (IDBS, ID Business Solutions) and EC50 values calculated using the IDBS program ActivityBase XE. Table 2A and 2B show the IC50 values obtained in the above-outlined cell proliferation assay for exemplary compounds of the invention.

[2] = system: estrogen receptor (ER)-mediated transcriptional activity; test: Inhibition of estrogen receptor (ER) signaling, ERE-tk-luc transfection assay in MCF-7 cells; format: cell-based; conditions: Homo sapiens, MCF7, ERE-tk-luc luciferase readout, 24 h
Method: To determine the effect of the compounds on estrogen receptor (ER)-mediated transcriptional activity a transfection assay using the MCF-7 cell line was performed. A luciferase-coupled ERE-tk-luc construct was obtained from Dr. G. Reid (EMBL).
In brief, MCF-7 cells were maintained as described previously and seeded on the first experimental day at a concentration of 3500 cells/well in 100 μl medium and incubated under standard conditions for 24 h. Following this initial incubation period, transfection was carried out using 5 ng of the ERE-tk-luc construct (per well) and Exgene 500 transfection reagent (Fermentas) in a final buffered solution containing 150 mM NaCl and 20 mM Tris pH 8.4. The plates were then maintained for 3-4 hours until cell culture conditions in the incubator before compounds were added at 11× concentrations to yield the final desired compound concentrations in 0.5% DMSO (in the same manner as for the proliferation assays described previously).
After an additional 24 h incubation period the degree of inhibition of ER-signaling was determined via a luciferase readout. Cells were treated with Britelite™ plus solution according to the manufacturer's instructions (PerkinElmer, britelite plus, Ultra-High Sensitivity Luminescence Reporter Gene Assay System) and luciferase levels measured on an Envision HTS multilabel plate reader (PerkinElmer) in luminescence mode according to established protocols. Raw data were imported into an ActivityBase database (IDBS, ID Business Solutions) and IC50 values calculated using the IDBS program ActivityBase XE.

caspase-3/7 = test: Activation of apoptosis, Caspase-Glo 3/7 in HG-1 cells; format: cell-based; conditions: caspase-3/7 activation, 24 h
Method: Activation of caspase-3/7 signal following treatment with test compounds was carried out using a Caspase-Glo® 3/7 kit (Promega). In brief, HG-1 cells were seeded at a concentration of 1000 cells/well in 50 μl medium into 96-well plates and incubated for 24 h under the conditions described previously. Compounds at various concentrations were then added to the wells (at all final concentrations 0.5% DMSO) and incubated for a further 24 h period. The plates were subsequently removed from the incubator and allowed to equilibrate to room temperature, after which 50 μl Caspase-Glo reagent was added to all wells, the plate shaken at 300 rpm for 30 s, and luminescence measured after a 30 min incubation period on an Envision HTS (PerkinElmer).

T1 sequence (P02550 whole entry): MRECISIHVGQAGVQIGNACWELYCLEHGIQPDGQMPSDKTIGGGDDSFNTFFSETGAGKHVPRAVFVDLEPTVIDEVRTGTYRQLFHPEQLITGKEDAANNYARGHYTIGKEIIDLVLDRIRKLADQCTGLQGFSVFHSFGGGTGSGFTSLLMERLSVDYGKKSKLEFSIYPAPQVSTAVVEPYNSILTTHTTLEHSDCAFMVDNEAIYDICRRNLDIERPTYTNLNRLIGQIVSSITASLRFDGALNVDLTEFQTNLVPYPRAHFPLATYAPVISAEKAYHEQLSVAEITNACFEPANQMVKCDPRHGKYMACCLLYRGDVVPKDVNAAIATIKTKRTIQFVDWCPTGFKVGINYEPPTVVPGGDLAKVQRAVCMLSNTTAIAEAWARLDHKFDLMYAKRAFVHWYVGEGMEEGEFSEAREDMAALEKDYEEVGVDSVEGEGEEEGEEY
T1 sequence (P02554 whole entry): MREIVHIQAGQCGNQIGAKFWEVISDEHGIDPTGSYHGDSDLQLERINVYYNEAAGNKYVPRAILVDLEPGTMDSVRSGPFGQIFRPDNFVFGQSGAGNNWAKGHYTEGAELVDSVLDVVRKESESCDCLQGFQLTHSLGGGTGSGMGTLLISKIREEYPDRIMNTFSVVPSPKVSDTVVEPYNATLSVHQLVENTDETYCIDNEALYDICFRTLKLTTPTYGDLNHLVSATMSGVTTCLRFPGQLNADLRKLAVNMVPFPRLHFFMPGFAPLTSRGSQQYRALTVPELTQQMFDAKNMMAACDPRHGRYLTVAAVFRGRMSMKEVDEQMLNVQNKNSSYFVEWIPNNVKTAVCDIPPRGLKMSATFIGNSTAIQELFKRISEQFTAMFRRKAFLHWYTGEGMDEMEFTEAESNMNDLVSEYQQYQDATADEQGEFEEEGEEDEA

Compound | EC50 (MCF7 cells) | inhibition at 10 µM (tubulin) | EC50 [1] | EC50 (HG1 cells) | IC50 [2] | EC50 (caspase-3/7)
Cc1ccc(S(=O)(=O)Nc2cc(-c3ccc(C)o3)ccc2C)cc1 [Example 3, 4-Methyl-N-[2-methyl-5-(5-methyl-furan-2-yl)-phenyl]-benzenesulfonamide] | < 500 nM | > 50% | < 500 nM | – | – | –
Cc1ccc(S(=O)(=O)Nc2cc(-c3ccsc3)ccc2C)cc1 [Example 8, 4-Methyl-N-(2-methyl-5-thiophen-3-yl-phenyl)-benzenesulfonamide] | < 500 nM | – | < 500 nM | < 500 nM | – | –
Cc1ccc(S(=O)(=O)Nc2cc(-c3ccc(C)s3)ccc2C)cc1 [Example 11, 4-Methyl-N-[2-methyl-5-(5-methyl-thiophen-2-yl)-phenyl]-benzenesulfonamide] | < 500 nM | 20 to 50% | – | – | – | –
Cc1ccc(S(=O)(=O)Nc2cc(-n3cccc3)ccc2C)cc1 [Example 15, 4-Methyl-N-(2-methyl-5-pyrrol-1-yl-phenyl)-benzenesulfonamide] | < 500 nM | – | – | < 500 nM | < 500 nM | –
COc1ccc(S(=O)(=O)Nc2cc(-c3c(C)noc3C)ccc2C)cc1 [Example 16, N-[5-(3,5-Dimethyl-isoxazol-4-yl)-2-methyl-phenyl]-4-methoxy-benzenesulfonamide] | < 500 nM | 20 to 50% | – | – | – | –
Cc1ccc(S(=O)(=O)Nc2cc(-c3ccccn3)ccc2C)cc1 [Example 19, 4-Methyl-N-(2-methyl-5-pyridin-2-yl-phenyl)-benzenesulfonamide] | 500 to 1000 nM | – | – | < 500 nM | – | –
Cc1ccc(S(=O)(=O)Nc2cc(-n3cnnc3)ccc2C)cc1 [Example 22, 4-Methyl-N-(2-methyl-5-[1,2,4]triazol-4-yl-phenyl)-benzenesulfonamide] | 1000 to 10000 nM | – | – | < 500 nM | – | –
Cc1ccc(S(=O)(=O)Nc2cc(-c3cscc3C)ccc2C)cc1 [Example 23, 4-Methyl-N-[2-methyl-5-(4-methyl-thiophen-3-yl)-phenyl]-benzenesulfonamide] | < 500 nM | > 50% | < 500 nM | – | – | –
COc1ccc(S(=O)(=O)Nc2cc(-c3ccc(C#N)s3)ccc2C)cc1 [Example 51, N-[5-(5-Cyano-thiophen-2-yl)-2-methyl-phenyl]-4-methoxy-benzenesulfonamide] | < 500 nM | – | < 500 nM | < 500 nM | – | < 500 nM
COc1ccc(S(=O)(=O)Nc2cc(-c3cc(C#N)cs3)ccc2C)cc1 [Example 56, N-[5-(4-Cyano-thiophen-2-yl)-2-methyl-phenyl]-4-methoxy-benzenesulfonamide] | < 500 nM | > 50% | – | – | – | < 500 nM
Cc1ccc(S(=O)(=O)Nc2cc(-c3ccc(C#N)cc3)ccc2C)cc1 [Example 60, N-(4′-Cyano-4-methyl-biphenyl-3-yl)-4-methyl-benzenesulfonamide] | < 500 nM | < 20% | – | – | < 500 nM | < 500 nM
COc1ccc(S(=O)(=O)Nc2cc(-c3ccc(C#N)cc3)ccc2C)cc1 [Example 63, N-(4′-Cyano-4-methyl-biphenyl-3-yl)-4-methoxy-benzenesulfonamide] | < 500 nM | < 20% | – | – | – | < 500 nM
Cc1ccc(S(=O)(=O)Nc2cc(-c3ccc(C#N)c(C)c3)ccc2C)cc1 [Example 72, N-(4′-Cyano-4,3′-dimethyl-biphenyl-3-yl)-4-methyl-benzenesulfonamide] | < 500 nM | < 20% | – | – | < 500 nM | –
COc1ccc(S(=O)(=O)Nc2cc(-c3csc(C#N)c3)ccc2C)cc1 [Example 73, N-[5-(5-Cyano-thiophen-3-yl)-2-methyl-phenyl]-4-methoxy-benzenesulfonamide] | < 500 nM | – | < 500 nM | < 500 nM | – | –
